# Key:
# healthy subjects = test: Transthoracic echocardiography (TTE) pharmacodynamics after single ascending doses in healthy volunteers; assay type: in vivo, human; conditions: for SET, mean (SD) increase from Baseline: 1.5 to 2 hours postdose
# Protocol: To assess pharmacodynamic effects, serial echocardiograms were performed. The sonographers used in the study completed Echo protocol training and submitted an example of a study for evaluation to the core laboratory for evaluation. The core TTE lab certified that the sonographer was able to perform the TTEs at a level satisfactory for obtaining the required protocol data.
# These criteria were chosen to prevent subjects from having prolongation of SET that might lead to myocardial ischemia. Dose escalation stopping criteria also included observation of a Baseline-corrected, group mean relative increase of >20% in any 2 sequential TTE assessments in at least 2 measures of LV contractility: LVOT-VTI, LVFS, LVEF, or LVSV in subjects receiving Compound I. Placebo-controlled evaluation may have been considered. For this comparison, subjects who received placebo may have been pooled across cohorts.
# PK and PD data were collected as described herein. […] Changes from Baseline at each postbaseline timepoint were assessed.
# SET as determined by TTE was assessed using summary statistics. Observations and change from Baseline were summarized by treatment at each time point and the maximum change from Baseline determined for each subject. In addition, categorical analyses were performed on the number of subjects with a change from Baseline >50 msec and the number of subjects with a change from Baseline >75 msec in 1 or any 2 sequential TTE assessments. The relationship to Compound I plasma concentration to SET was explored. An analysis of SET placebo-adjusted change from Baseline was also performed.
# As the Cmax occurred at between 4 and 6 hours in most of the subjects, the TTE obtained at 6 hours postdose was considered the best timepoint to explore the relationship between concentration and pharmacological effect. TTEs obtained at 1.5 and 3 hours after dosing were before the Cmax and at 9 hours were after the peak Cmax. Based on the preclinical data, it was considered unlikely that there would be a prolonged lag between the Cmax and peak pharmacological effect. As the exposure after the administration of the 350 mg and 525 mg doses were very similar, it was decided to not only present the results from these groups separately, but also to combine the data from these groups. By combining the data from the 2 groups, the number of subjects dosed was increased from 6 to 12, thus increasing the power to observe a statistically significant change from Baseline in the TTE parameters of interest.
# healthy volunteers = test: Safety and tolerability in food effect study, healthy volunteers; assay type: in vivo, human; conditions: 200 mg
# Protocol: ECG was performed as described in Example 1. The following intervals were measured: RR, PR, QRS, and QT. Heart rate (HR) was calculated as […] (with RR expressed in msec) and rounded to the nearest integer. Each individual ECG QT value was corrected for HR. The measured QT data was corrected for HR using the Fridericia method (QTcF) as per the following formulae/method (with QT, RR and QTc expressed in ms): […]
# The Investigator or designee monitored the continuous ECG telemetry data and correlated the finding(s) with any other clinical findings, study participant's medical history, study participant's clinical status and laboratory data to determine the clinical importance of the finding.
# Serum troponin-I concentrations were determined as described in Example 1. Abnormal and/or rising troponin values (as per Investigator's judgment and taking into account potential Baseline troponin elevation) led to the subject being clinically evaluated for possible myocardial ischemia. […] The entire clinical context would be evaluated (e.g., signs, symptoms, new ECG changes, new troponin, and CK-MB abnormalities) and correlated with any other relevant clinical findings, the subject's medical history, and laboratory data to determine the clinical significance of the findings.
# [1] = 6 hours postdose, plasma concentration bin 0-1000 ng/mL (n = 29)
# [2] = 6 hours postdose, plasma concentration bin 1001-2000 ng/mL (n = 9)
# [3] = 6 hours postdose, plasma concentration bin >2000 ng/mL (n = 10)
# [4] = plasma concentrations >2000 ng/ml, 6 hours postdose
structure (smiles),measurement,setting,value
"Cn1cc(S(=O)(=O)[C@@](C)(F)C2CCN(C(=O)Nc3ccon3)CC2)c(C(F)F)n1 [Compound I, (R)-4-(1-((3-(difluoromethyl)-1-methyl-1H-pyrazol-4-yl)sulfonyl)-1-fluoroethyl)-N-(isoxazol-3-yl) piperidine-1-carboxamide]","SET, mean (SD) increase from Baseline",healthy subjects; 350 mg and 525 mg combined,18.0 (19.5) msec
same,"SET, mean (SD) increase from Baseline",healthy subjects; 350 mg,19.2 (20.5) msec
same,"DBP, placebo-corrected LS mean difference of change from Baseline",healthy subjects; [1],2.277 mm Hg
same,"E/A ratio, placebo-corrected LS mean difference of change from Baseline",healthy subjects; [1],0.150
same,"HR, placebo-corrected LS mean difference of change from Baseline",healthy subjects; [1],−1.070 bpm
same,"LVEDD, placebo-corrected LS mean difference of change from Baseline",healthy subjects; [1],−0.014 cm
same,"LVESD, placebo-corrected LS mean difference of change from Baseline",healthy subjects; [1],0.025 cm
same,"LVFS, placebo-corrected LS mean difference of change from Baseline",healthy subjects; [1],−0.560%
same,"MPI, placebo-corrected LS mean difference of change from Baseline",healthy subjects; [1],−0.007
same,"SBP, placebo-corrected LS mean difference of change from Baseline",healthy subjects; [1],−0.623 mm Hg
same,"DBP, placebo-corrected LS mean difference of change from Baseline",healthy subjects; [2],2.937 mm Hg
same,"HR, placebo-corrected LS mean difference of change from Baseline",healthy subjects; [2],0.336 bpm
same,"LVEDD, placebo-corrected LS mean difference of change from Baseline",healthy subjects; [2],−0.041 cm
same,"LVEDV, placebo-corrected LS mean difference of change from Baseline",healthy subjects; [2],-6.100 mL
same,"MPI, placebo-corrected LS mean difference of change from Baseline",healthy subjects; [2],−0.021
same,"SBP, placebo-corrected LS mean difference of change from Baseline",healthy subjects; [2],1.132 mm Hg
same,"DBP, placebo-corrected LS mean difference of change from Baseline",healthy subjects; [3],1.540 mm Hg
same,"E/A ratio, placebo-corrected LS mean difference of change from Baseline",healthy subjects; [3],−0.047
same,"E/e′(lateral), placebo-corrected LS mean difference of change from Baseline",healthy subjects; [3],−0.063
same,"HR, placebo-corrected LS mean difference of change from Baseline",healthy subjects; [3],2.871 bpm
same,"MPI, placebo-corrected LS mean difference of change from Baseline",healthy subjects; [3],0.033
same,"SBP, placebo-corrected LS mean difference of change from Baseline",healthy subjects; [3],−1.572 mm Hg
same,plasma concentrations at which PD effects were discernable,healthy subjects; echocardiographic measures,≥ 1000 ng/mL
same,"IVRT (mitral inflow doppler), placebo-corrected LS mean difference",healthy subjects; [4],12.0 ms
same,"stroke volume, placebo-corrected LS mean difference±SE",healthy subjects; [4],8.20 ± 3.99 mL
same,abnormal ECG results,healthy volunteers; fasted state,3 (30.0%) n (%)
same,"drug-related headache, subjects",healthy volunteers; fasted state,3 subjects
same,"headache, subjects",healthy volunteers; fasted state,4 subjects
same,"Cardiac disorders, subjects",healthy volunteers; fasted state (1 sinus tachycardia and 1 ventricular tachycardia),2 subjects
same,abnormal ECG results,healthy volunteers; fed state,2 (20.0%) n (%)
same,"drug-related headache, subjects",healthy volunteers; fed state,1 subject
same,"headache, subjects",healthy volunteers; fed state,1 subject
same,"Cardiac disorders, subjects",healthy volunteers; fed state (palpitations),1 subject

# Source: patent US20250325531A1, “TREATMENT OF SYSTOLIC DYSFUNCTION” (MyoKardia, Inc., priority 2024, published 2025)
